Where “and” joins values, the source holds several entries; their conditions need not be identical. Identical values can stand only once. Like-named read-outs stand apart in the source and are kept apart here. Marks after values point to notes of the source that are not given here.
Legend:
purified tubulin = experiment: Inhibition of tubulin polymerization; format: biochemical; conditions: read-out: Inhibition of tubulin polymerization IC50 ± SD
Excerpt: As a reference for comparison, combretastatin A-4 (CA-4) and Cu(HL^1)Cl2 were used.
(§1) The methods used for determination of the IC50 values for tubulin assembly and inhibition of [^3H]colchicine binding were as described previously.[77]

[1] = system: tubulin (colchicine site); experiment: Inhibition of [3H]colchicine binding to tubulin; conditions: tubulin 0.5 μM, [3H]colchicine 5 μM
Excerpt: as §1

[2] = Cyclic voltammetry in DMSO/nBu4NPF6; format: physicochemical; conditions: scan rate 100 mV s^−1
Procedure: Cyclic voltammetric experiments with 0.5 mM solutions of 1–3 in 0.1 M nBu4NPF6 (puriss quality from Fluka (Schwerte, Germany), dried under reduced pressure at 70 °C for 24 h before use) supporting electrolyte in DMSO (SeccoSolv max. 0.025% H2O, Merck) were performed under argon atmosphere using a three-electrode setup with a platinum disk or a glassy carbon disk working electrode (from Ionode, Australia), platinum wire as a counter electrode, and silver wire as a pseudo reference electrode. All potentials in voltammetric studies were quoted vs. ferricenium/ferrocene (Fc^+/Fc) redox couple. A Heka PG310USB (Lambrecht, Germany) potentiostat with a PotMaster 2.73 software package served for the potential control in voltammetric studies. In situ ultraviolet-visible-near-infrared (UV–Vis–NIR) spectroscopic and spectroelectrochemical measurements were performed on a spectrometer Avantes (Model AvaSpec-2048_14-USB2) in 1 cm quartz cuvette or the spectroelectrochemical cell kit ([…]3) with the Pt-microstructured honeycomb working electrode, purchased from Pine Research Instrumentation (Lyon, France). The cell was positioned in the CUV-UV Cuvette Holder (Ocean Optics, Ostfildern, Germany) connected to the diode-array UV–Vis–NIR spectrometer by optical fibres. UV–Vis–NIR spectra were processed using the AvaSoft 7.7 software package. Halogen and deuterium lamps were used as light sources (Avantes, Model AvaLight-DH-S-BAL, Apeldoorn, The Netherlands). EPR spectra were measured with a X-band cw-EPR spectrometers EMX and EMX plus (Bruker) at room temperature or 100 K. Spectroelectrochemical experiments were performed in a flat cell equipped with a Pt mesh working electrode using nBu4NPF6/DMSO electrolyte. Measurements in frozen solvent glass were done in MeCN/DMF 1 : 1 v/v. Complexes 4 and 5 were dissolved under ambient conditions, and complex 3 was reduced with a stoichiometric equivalent of cobaltocene in a N2 glovebox (N2 < 2 ppm, H2O < 1 ppm). The MeCN/DMF solutions were flash frozen in liquid N2 prior to transfer to the N2 flow cryostat precooled at 100 K inside the cavity of the EPR resonator. EPR spectra were analyzed with the Easyspin toolbox,[75] running on Matlab.

[3] = system: A549 human lung adenocarcinoma cells; experiment: MTT viability assay, 24 h; conditions: Homo sapiens, A549, 24 h, read-out: IC50 values A549
[4] = pKa by pH-potentiometric titration; format: physicochemical; conditions: 30% (v/v) DMSO/H2O, 25.0 °C, I = 0.1 M (KCl), anoxic
Procedure: Therefore, the proton dissociation constants (pKa) of the proligands HL^1–HL^3 were determined under anoxic conditions by pH-potentiometric titrations (Fig. S14 in the ESI ^†). As this method requires relatively high compound concentrations (>1 mM), the measurements were performed in 30% (v/v) DMSO to achieve the required solubility. Three pKa values were determined for the proligands HL^1 and HL^2, whereas only two constants, as expected, were obtained for phenyl derivative HL^3 (Table 3). The constants obtained were assigned to the deprotonation NmorpholiniumH^+ (NmorphH^+), NhydrazineH (NhydrH) and OH moieties for HL^1 and HL^2, and to the NmorphH^+ and NhydrH for HL^3, respectively. It should be noted that we could not determine pKa values for the pyridinium group as its deprotonation in all three instances took place at fairly low pH values (pH < 2) due to the electron withdrawing effect of the protonated morpholinium moiety. The determined pKa values indicate that these compounds are in their neutral HL form at pH 7.4 and only a minor fraction (1–3%) is protonated ((HL)H^+) at the morpholinium nitrogen (Table 3).

[5] = n-octanol/water partitioning (shake-flask), log D; conditions: n-octanol/buffered aqueous solution, pH 6
[6] = system: MRC-5 human lung fibroblast cells; experiment: MTT viability assay, 24 h; conditions: Homo sapiens, MRC5, 24 h, read-out: IC50 values MRC-5

| Structure (SMILES) | IC50 (purified tubulin) [µM] | Inhibition of colchicine binding, % inhibition ± SD ([1]; 5 μM inhibitor) [%] | 1st oxidation potential (peak potential Ep) [2] | 1st reduction potential (E1/2 or Ep) [2] | 2nd reduction potential (E1/2 or Ep) [2] | Inhibition of colchicine binding, % inhibition ± SD ([1]; 25 μM inhibitor) [%] | IC50 [3] [µM] | pKa ([4]; read-out: pKa (NhydrH)) | pKa ([4]; read-out: pKa (NmorphH^+)) | pKa ([4]; read-out: pKa (OH)) | logD [5] | IC50 [6] [µM] |
| --- | --- | --- | --- | --- | --- | --- | --- | --- | --- | --- | --- | --- |
| COc1ccc(/C=C\c2cc(OC)c(OC)c(OC)c2)cc1O [C-A4, combretastatin A-4, reference compound] | […] | 97 ± 0.5 |  |  |  |  |  |  |  |  |  |  |
| Cc1cc(NC([S-])=NN=Cc2cccc(CN3CCOCC3)n2)cc(C)c1O.[Cl-].[Ni+2] [Complex 6, [Ni^II(L^1)]Cl] | > 20 |  | 0.12 volts vs. Fc^+/Fc and 0.12^i* volts vs. Fc^+/Fc | −1.29 volts vs. Fc^+/Fc and −1.29^q volts vs. Fc^+/Fc | −1.87 volts vs. Fc^+/Fc and −1.87^q volts vs. Fc^+/Fc |  |  |  |  |  |  |  |
| Cc1cc(NC([S-])=NN=Cc2cccc(C[NH+]3CCOCC3)n2)cc(C)c1O.[Cl-].[Cl-].[Pd+2] [Complex 8, [Pd^II(HL^1)Cl]Cl] | 6.5 ± 1 | 13 ± 5 | 0.28 volts vs. Fc^+/Fc and 0.28^i* volts vs. Fc^+/Fc | −0.91^q volts vs. Fc^+/Fc | −1.28^q volts vs. Fc^+/Fc | 97 ± 1 |  |  |  |  |  |  |
| Cc1cc(NC(=S)N/N=C/c2cccc(CN3CCOCC3)n2)cc(C)c1O [HL^1, 6-morpholinomethyl-2-formylpyridine 4N-(4-hydroxy-3,5-dimethylphenyl)-3-thiosemicarbazone] |  |  |  |  |  |  | 72.8 ± 1.22 | 10.44 ± 0.03 | 5.54 ± 0.03 | 12.12 ± 0.02 | 1.23 | > 80 |
| C/C(=N\NC(=S)Nc1cc(C)c(O)c(C)c1)c1cccc(CN2CCOCC2)n1 [HL^2, 6-morpholinomethyl-2-acetylpyridine 4N-(4-hydroxy-3,5-dimethylphenyl)-3-thiosemicarbazone] |  |  |  |  |  |  | > 80 | 10.41 ± 0.03 | 5.85 ± 0.04 | 12.23 ± 0.02 | 1.5 | > 80 |
| S=C(N/N=C/c1cccc(CN2CCOCC2)n1)Nc1ccccc1 [HL^3, 6-morpholinomethyl-2-formylpyridine 4N-phenyl-3-thiosemicarbazone] |  |  |  |  |  |  | > 80 | 10.44 ± 0.03 | 5.55 ± 0.02 |  | 2.06 | > 80 |

From paper PMC11264232, “Are the metal identity and stoichiometry of metal complexes important for colchicine site binding and inhibition of tubulin polymerization?” (Dalton Transactions (Cambridge, England : 2003), 2024)
